Results from patent US20260091136A1, “USING ENHO GENE THERAPY TO TREAT CARDIOMETABOLIC DISEASE” (University of Pittsburgh-of the Commonwealth System of …, priority 2023, published 2026).
“Also recorded” adds a separate entry of the source.

What was measured:
[1] = test system: GPR19; assay: Wildtype and GPR19-knockout mice on HFpEF diet with or without Adropin; format: in vivo
Source text: Wildtype and GPR19-knockout (GPR19-KO) mice were given normal chow (control mice), HFpEF diet without Adropin, or HFpEF with Adropin.

[2] = In vivo stability of recombinant Adropin (clearance from circulation); conditions: within 1 hour
[3] = test system: HFpEF mice; assay: Body weight during four weeks of daily recombinant Adropin in HFpEF mice (Example 1); format: in vivo; conditions: for relative body weight (change per mouse between days 0 and 29): p-value<0.0001
Source text: The mouse HFpEF model used in this study was first reported in Schiattarella et al. (2019), Nature 568: 351-356 (PMID: 30971818). Adult C57BL/6N or C57BL/6J mice (i.e. C57BL/6 wildtype) are placed on a diet of either regular chow (“control”), or a high fat diet (60% fat) supplemented with 0.5 g/L L-NAME in drinking water (“HFpEF”) for 5-20 weeks.
Administration of Recombinant Adropin. Mice received low-fat chow or HFpEF diet for 10 weeks. For the following 4 weeks, the mice were maintained on respective diets and received daily injections of recombinant Adropin. Body weight was measured every day during the four weeks of treatment.

[4] = test system: HFpEF mice; assay: Echocardiography, cohort 2; format: in vivo, C57BL/6J mice; conditions: HFpEF mice treated with Adropin 450 nmol/kg daily i.p.
Source text: Twelve week-old C57BL/6J wild-type male mice were exposed to normal chow, or a combination of 60% high fat diet plus N^ω-nitro-L-arginine methyl ester (L-NAME: 0.5 g/L in drinking water) to induce HFpEF. After 8 weeks of diet, mice were randomly assigned to a control HFpEF group, or to a group receiving daily intraperitoneal injections of recombinant Adropin (450 nmol/kg) for the remaining weeks of the study. All animal experiments were approved by the University of Pittsburgh Institutional Animal Care and Use Committee. […] These changes occurred in the absence of systolic dysfunction (FIG. 6). Each marker of cardiac dysfunction was absent in HFpEF mice treated with Adropin (FIG. 6).
Animal Care and Use. Male C57BL/6J 8-week-old mice were obtained from the Jackson Laboratory and maintained on chow for 4 weeks to acclimate to their new environment. […]
Echocardiography. Mice were anesthetized using isofluorane (1.5%-2.0% v/v by inhalation) and monitored for cardiac functional parameters in the supine position using a Visual Sonics Vevo 3100. […] The left atrial area was quantified in the apical 4-chamber view by tracing the border of the left atrium. Markers of systolic and diastolic function were calculated using standard echocardiography equations. […] Image analysis was performed independently by a blinded sonographer and all parameters were measured at least 3 times, and averages are presented.

[5] = test system: hexosamine biosynthesis pathway (HBP); assay: Metabolomics of hearts, HFpEF vs HFpEF+Adropin; format: in vivo, C57BL/6J mice; conditions: heart; for cardiac hexose and pyruvate levels: Adropin-treated HFpEF mice; for hexosamine biosynthesis pathway (metabolites related to UDP-GlcNAc biosynthesis), untargeted BioCyc pathway analysis: vehicle-treated vs adropin-treated HFpEF groups
Source text: Animal Care and Use. Male C57BL/6J 8-week-old mice were obtained from the Jackson Laboratory and maintained on chow for 4 weeks to acclimate to their new environment. Animals were housed in the University of Pittsburgh animal facility under standard conditions with ad libitum access to water and food and maintained on a constant 12-hour light/dark cycle. At 12 weeks of age, the mice were exposed to normal chow (Chow; 60% carbohydrate, 26% protein, 14% fat), or a combination of high-fat diet (HFD; 20% carbohydrate, 20% protein, 60% fat) plus No-nitro-L-arginine methyl ester (L-NAME: 0.5 g/L) supplemented in their drinking water after adjusting the pH to 7.4 with 1N NaOH to induce HFpEF [10]. For cohort 1, the mice were subject to the HFpEF diet for 15 weeks. For cohort 2, after 8 weeks of diet, mice were randomly assigned to a control or treatment group receiving daily intraperitoneal injections of either vehicle or recombinant adropin at 450 nmol/kg animal weight prepared in PBS with 0.1% BSA for the remaining 5 weeks of the study. L-NAME supplemented drinking water was changed weekly and adropin was made fresh and sterile filtered before each use.
Quantitative Metabolomics. Metabolic quenching and polar metabolite pool extraction was performed by adding ice cold 80% methanol (aqueous) at a ratio of 1:15 wt input tissue:vol. (13 C1)-creatinine, (D3)-taurine, (D3)-lactate and (D3)-alanine were added to the sample lysates as an internal standard for a final concentration of […]. Samples are homogenized using an MP Bio FastPrep system using Matrix D (ceramic sphere) for 60 seconds at 60 hz. The supernatant was then cleared of protein by centrifugation at 16,000 g. 2 μL of cleared supernatant was subjected to online LC-MS analysis. Analyses were performed by untargeted liquid chromatography-high-resolution mass spectrometry (LC-HRMS). Briefly, samples were injected via a Thermo Vanquish UHPLC and separated over a reversed phase. Thermo HyperCarb porous graphite column (2.1×100 mm, […]) maintained at 55° C. For the 20 min LC gradient, the mobile phase consisted of the following: solvent A (water/0.1% FA) and solvent B (ACN/0.1% FA). The gradient was the following: 0-1 min 1% B, increase to 15% B over 5 min, continue increasing to 98% B over 5 min, hold at 98% B for five min, re-equillibrate at 1% B for five min. The Thermo IDX tribrid mass spectrometer was operated in both positive and negative ion mode, scanning in ddMS2 mode (2 scans) from 70 to 800 m/z at 120,000 resolution with an AGC target of 2e5 for full scan, 2e4 for ms2 scans using HCD fragmentation at stepped 15, 35, 50 collision energies. Source ionization setting was 3.0 and 2.4 kV spray voltage, respectively, for positive and negative mode. Source gas parameters were 35 sheath gas, 12 auxiliary gas at 320° C., and 8 sweep gas. Calibration was performed prior to analysis using the Pierce™ FlexMix Ion Calibration Solutions. Integrated peak areas were then extracted manually using Quan Browser (Thermo Fisher Xcalibur ver. 2.7). Untargeted differential comparisons were performed using Compound Discoverer 3.0 to generate a ranked list of significant compounds with tentative identifications from BioCyc, KEGG, and internal compound databases. Purified standards were then purchased and compared in retention time, m/z, along with ms2 fragmentation patterns to validate the identity of significant hits.

[6] = wildtype HFpEF mice that received Adropin vs wildtype control mice

Substance: Adropin: recombinant Adropin peptide hormone encoded by the ENHO gene; full-length (SEQ ID NO: 1) or cleaved product of amino acids 34-76 (SEQ ID NO: 2) (CHSRSADVDSLSESSPNSSPGPCPEKAPPPQKPSHEGSYLLQP)
- IVRT ([1]; GPR19-KO HFpEF mice vs GPR19-KO control mice, in contrast to wildtype, p-value <0.01): significantly greater
- diastolic function (MV E/e′) ([1]; GPR19-KO mice vs control mice, in contrast to wildtype, p-value <0.001): remained significantly lower
- fasted body weight of HFpEF mice relative to HFpEF mice that received Adropin ([1]; GPR19-KO mice, p-value <0.0001): significantly greater
- Adropin-mediated improvement of diastolic function in GPR19-KO HFpEF mice ([1]; fasted body weight, MV E/e′ and IVRT): not observed; also recorded: GPR19-dependent
- body weight of GPR19-KO HFpEF mice that received Adropin relative to wildtype HFpEF mice that received Adropin ([1]; p-value <0.0001): significantly greater
- diastolic function (MV E/e′) ([1]; wildtype HFpEF mice that received Adropin vs wildtype HFpEF mice without Adropin): increased on average
- IVRT [1, 6]: not significantly different
- diastolic function (MV E/e′) [1, 6]: not significantly different
- IVRT ([1]; wildtype HFpEF which received Adropin vs wildtype HFpEF mice without treatment, p-value <0.01): significantly lower
- fasted body weight of HFpEF mice relative to HFpEF mice that received Adropin ([1]; wildtype mice, p-value <0.0001): significantly greater
- peptide cleared from circulation [2]: 96%
- relative body weight (change per mouse between days 0 and 29) ([3]; HFpEF mice that received Adropin vs HFpEF mice without treatment): significantly lower
- relative body weight (change per mouse between days 0 and 29) ([3]; HFpEF mice that received Adropin vs mice on control chow diet): significantly greater
- body weight ([3]; HFpEF mice which received Adropin versus HFpEF mice which did not, daily Adropin for four weeks, beginning on day 8): reduced; also recorded: decrease
- markers of cardiac (diastolic) dysfunction: increased heart/LV mass, decreased cardiac output, increased IVRT, increased LV MPI [4]: absent; also recorded: improved
- markers of cardiac (diastolic) dysfunction: increased heart/LV mass, decreased cardiac output, increased IVRT, increased LV MPI ([4]; listed as adropin): absent; also recorded: attenuates
- cardiac hexose and pyruvate levels [5]: trend towards decreased
- cardiac hexose and pyruvate levels ([5]; listed as adropin): trend towards restored
- abundance of metabolites used to generate UDP-GlcNAc (GlcNAc-6-P, uridine, coenzyme A) ([5]; relative to HFpEF mice): significant increase
- hexosamine biosynthesis pathway (metabolites related to UDP-GlcNAc biosynthesis), untargeted BioCyc pathway analysis [5]: major metabolomic differences; also recorded: modulated
- hexosamine biosynthesis pathway (metabolites related to UDP-GlcNAc biosynthesis), untargeted BioCyc pathway analysis ([5]; listed as adropin): major metabolomic difference; also recorded: inhibits
